Data from US10045977B2, “Use of nalmefene in non-alcoholic steatohepatitis” (TAIWANJ PHARMACEUTICALS CO., LTD., priority 2016, dated 2018).

Columns and labels:
STAM model of NASH = experiment: In vivo efficacy study in STAM model of NASH; set-up: Steatosis score / Inflammation score / Ballooning score: scale not given here; conditions: for NAS (NAFLD Activity Score) compared with the Vehicle group, in words: HE-stained liver sections; for NAS (NAFLD Activity Score) compared with the Vehicle group, in words / Fibrosis area (Sirius red-positive area) compared with the Vehicle group: week 9; for Fibrosis area (Sirius red-positive area) compared with the Vehicle group: Sirius red-stained liver sections; for Ballooning score / Inflammation score / NAS (NAFLD activity score) / Steatosis score: mean ± SEM, twice daily from 6 to 9 weeks of age, Telmisartan 10 mg/kg oral, nalmefene/naltrexone 5 mg/kg s.c.
Source text: FIG. 3 sets out representative photomicrographs of HE-stained sections of livers from STAM model of NASH. Sections were cut from paraffin blocks of liver tissue prefixed in Bouin's solution and stained with Lillie-Mayer's Hematoxylin and eosin solution.
To visualize collagen deposition, Bouin's-fixed left lateral liver sections were stained using picro-Sirius red solution (Waldeck, Germany). b) For quantitative analysis of fibrosis area, bright field images of Sirius red-stained sections were captured around the central vein using a digital camera (DFC295; Leica, Germany) at 200-fold magnification, and the positive areas in 5 fields/section were measured using ImageJ software (National Institute of Health, USA). Individual values and mean±SEM for each treatment group are presented.
General Procedure NASH was induced in male C57BL/6 mice by a single subcutaneous injection of 200 μg streptozotocin solution 2 days after birth and feeding with high fat diet (HFD, 57 kcal % fat, Cat# HFD32, CLEA Japan, Japan) after 4 weeks of age. The animals were divided into groups of six each and were orally administered vehicle (1% Tween80) at 10 mL/kg or Telmisartan at 10 mg/kg twice daily from 6 to 9 weeks of age. […] The animals were sacrificed at week 9.

[1] = system: MCD diet fatty liver rats given E coli endotoxin (LPS); experiment: Methionine-choline-deficient (MCD) diet rat model with LPS second hit; type: in vivo, Sprague Dawley rats; conditions: for Prevention of liver injury following LPS in fatty liver rats: 0-30 mg/kg oral, FIG. 5; for Serum ALT change, in words: 6 h after LPS, p<0.05
Experimental: 20 Sprague Dawley rats were administered with Compound A by oral gavage once daily at 0, 5, 10, 20 or 30 mg/kg (4 rats/group) for 4 weeks. All animals were fed a methionine/choline deficient (MCD) diet (from Dyets, Inc) five times per week during the feeding period in order to produce a diet-induced fatty liver. Rats were weighed daily as well as food intake. At the end of four weeks, the rats were administered 2 mg/kg E coli endotoxin (LPS) IP and 6 hours later the rats were euthanized and liver tissue and serum collected. Liver and was harvested at time of death as was blood. Histology samples were also taken.

[2] = system: p38 MAP kinase phosphorylation in Kupffer cells; experiment: LPS-induced p38 MAP kinase phosphorylation in Kupffer cells; type: cell-based, rat; conditions: Compound A 100 ng/mL; 5 and 20 min; n=3 replicates; FIG. 2
Kupffer cells = experiment: LPS-stimulated release of TNF-α in Kupffer cells; type: cell-based, rat; conditions: E. coli LPS; supernatant TNF-α at 2, 4, 6 hours; FIG. 1
Experimental: Kupffer cells were isolated by enzymatic digestion and purified by centrifugal elutriation from normal rats and cultured overnight. They were then stimulated with E. coli LPS either without or with Compound A added to the medium. TNF-α content in the supernatant was measured at 2, 4, and 6 hours.

[3] = system: MCD diet fatty liver rats given E coli endotoxin (LPS); experiment: Methionine-choline-deficient (MCD) diet rat model with LPS second hit; type: in vivo, Sprague Dawley rats; conditions: 6 h after LPS 2 mg/kg IP, n=3, not statistically significant

CCCc1nc2c(C)cc(-c3nc4ccccc4n3C)cc2n1Cc1ccc(-c2ccccc2C(=O)O)cc1 [Telmisartan]
Mean body weight during the treatment period (STAM model of NASH; 6 to 9 weeks of age): gradually decreased
NAS (NAFLD Activity Score) compared with the Vehicle group, in words (STAM model of NASH): significant decreases
Fibrosis area (Sirius red-positive area) compared with the Vehicle group (STAM model of NASH): significantly decreased
Ballooning score (STAM model of NASH): 1.00 ± 0.26
Inflammation score (STAM model of NASH): 1.17 ± 0.48
NAS (NAFLD activity score) (STAM model of NASH): 2.67 ± 0.56
Steatosis score (STAM model of NASH): 0.50 ± 0.22

C=C1CC[C@@]2(O)C3Cc4ccc(O)c5c4C2(CCN3CC2CC2)C1O5 (stereo in doubt) [Compound A, 17-cyclopropylmethyl-4,5α-epoxy-6-methylenemorphinan-3,14-diol]
Prevention of liver injury following LPS in fatty liver rats [1]: dose-dependent prevention of liver injury
Prevention of liver injury following LPS in fatty liver rats ([1]; listed as Nalmefene): demonstrated efficacy in preventing inflammatory liver damage
Serum ALT change, in words ([1]; 20 mg/kg oral once daily 4 weeks): further decrease that was significant
Serum ALT ([1]; 30 mg/kg oral once daily 4 weeks, 6 h after LPS 2 mg/kg IP): 94.9+/−5.5 U/L
Serum ALT change, in words ([1]; 30 mg/kg oral once daily 4 weeks): further decrease that was significant
Liver histopathology finding ([1]; MCD and Compound A treated rats, FIG. 7): slight periportal chronic inflammation (mild nonspecific chronic hepatitis)
Liver histopathology finding ([1]; MCD+LPS+Compound A treated rats, FIG. 7): slight periportal chronic inflammation
Hepatic fat accumulation (histopathology) ([1]; treated rats compared to control, FIG. 7): prevents hepatic fat accumulation
LPS-induced p38 MAP kinase phosphorylation [2]: reduced
LPS/time-dependent increase in TNF-α released by Kupffer cells (Kupffer cells): inhibited
Mortality during the treatment period (STAM model of NASH; 5 mg/kg s.c. twice daily, before week 9): one out of six mice was found dead
NAS (NAFLD Activity Score) compared with the Vehicle group, in words (STAM model of NASH): tended to show decrease
Fibrosis area (Sirius red-positive area) compared with the Vehicle group (STAM model of NASH): tended to shown decrease
Ballooning score (STAM model of NASH): 0.40 ± 0.24
Inflammation score (STAM model of NASH): 1.80 ± 0.20
NAS (NAFLD activity score) (STAM model of NASH): 3.00 ± 0.63
Steatosis score (STAM model of NASH): 0.80 ± 0.49
Decrease of elevated serum ALT levels ([3]; 5 mg/kg oral once daily 4 weeks): ~50%
Decrease of elevated serum ALT levels ([3]; 10 mg/kg oral once daily 4 weeks): ~50%

O=C1CC[C@@]2(O)C3Cc4ccc(O)c5c4C2(CCN3CC2CC2)C1O5 (stereo in doubt) [Compound B, 17-cyclopropylmethyl-4,5α-epoxy-6-oxomorphinan-3,14-diol]
NAS (NAFLD Activity Score) compared with the Vehicle group, in words (STAM model of NASH): significant decreases
Fibrosis area (Sirius red-positive area) compared with the Vehicle group (STAM model of NASH): significantly decreased
Ballooning score (STAM model of NASH): 0.00 ± 0.00
Inflammation score (STAM model of NASH): 1.67 ± 0.33
NAS (NAFLD activity score) (STAM model of NASH): 2.17 ± 0.40
Steatosis score (STAM model of NASH): 0.50 ± 0.22
